Data from patent publication US20210253568A1, “AZAINDOLE DERIVATIVES AS RHO-KINASE INHIBITORS” (CHIESI FARMACEUTICI S.p.A., priority 2018, published 2021).

What was measured:
ROCK 2 = ROCK 2 (Homo sapiens, UniProt O75116); test: In vitro Rho kinase inhibitory activity assay (ADP-Glo), Rho kinase 2; format: biochemical; conditions: Ki by Cheng-Prusoff from IC50; 10 μM ATP, 25° C., expressed as range of activity
Description: (§1) The effectiveness of compounds of the present invention to inhibit Rho kinase activity can be determined in a 10 μl assay containing 40 mM Tris pH7.5, 20 mM MgCl2 0.1 mg/mi BSA, 50 μM DTT and 2.5 μM peptide substrate (Myelin Basic Protein) using an ADP-Glo kit (Promega). Compounds were dissolved in DMSO such that the final concentration of DMSO was 1% in the assay. All reactions/incubations are performed at 25° C. Compound (2 ul) and either Rho kinase 1 or 2 (4 μl) were mixed and incubated for 30 mins. Reactions were initiated by addition of ATP (4 μl) such that the final concentration of ATP in the assay was 10 μM. After a 1 hour incubation 10 μl of ADP-Glo Reagent was added and after a further 45 minute incubation 20 ul of Kinase Detection Buffer was added and the mixture incubated for a further 30 minutes. The luminescent signal was measured on a luminometer. […] Compounds were tested in dose-response format and the inhibition of kinase activity was calculated at each concentration of compound. To determine the IC50 (concentration of compound required to inhibit 50% of the enzyme activity) data were fit to a plot of % inhibition vs Log10 compound concentration using a sigmoidal fit with a variable slope and fixing the maximum to 100% and the minimum to 0%. To determine the Ki values the Cheng-Prusoff equation was utilized (Ki=IC50/(1+[S]/Km).

ROCK 1 = ROCK 1 (Homo sapiens, UniProt Q13464); test: In vitro Rho kinase inhibitory activity assay (ADP-Glo), Rho kinase 1; format: biochemical; conditions: Ki by Cheng-Prusoff from IC50; 10 μM ATP, 25° C., expressed as range of activity
Description: as §1

Sequence of ROCK 2 (O75116 whole entry): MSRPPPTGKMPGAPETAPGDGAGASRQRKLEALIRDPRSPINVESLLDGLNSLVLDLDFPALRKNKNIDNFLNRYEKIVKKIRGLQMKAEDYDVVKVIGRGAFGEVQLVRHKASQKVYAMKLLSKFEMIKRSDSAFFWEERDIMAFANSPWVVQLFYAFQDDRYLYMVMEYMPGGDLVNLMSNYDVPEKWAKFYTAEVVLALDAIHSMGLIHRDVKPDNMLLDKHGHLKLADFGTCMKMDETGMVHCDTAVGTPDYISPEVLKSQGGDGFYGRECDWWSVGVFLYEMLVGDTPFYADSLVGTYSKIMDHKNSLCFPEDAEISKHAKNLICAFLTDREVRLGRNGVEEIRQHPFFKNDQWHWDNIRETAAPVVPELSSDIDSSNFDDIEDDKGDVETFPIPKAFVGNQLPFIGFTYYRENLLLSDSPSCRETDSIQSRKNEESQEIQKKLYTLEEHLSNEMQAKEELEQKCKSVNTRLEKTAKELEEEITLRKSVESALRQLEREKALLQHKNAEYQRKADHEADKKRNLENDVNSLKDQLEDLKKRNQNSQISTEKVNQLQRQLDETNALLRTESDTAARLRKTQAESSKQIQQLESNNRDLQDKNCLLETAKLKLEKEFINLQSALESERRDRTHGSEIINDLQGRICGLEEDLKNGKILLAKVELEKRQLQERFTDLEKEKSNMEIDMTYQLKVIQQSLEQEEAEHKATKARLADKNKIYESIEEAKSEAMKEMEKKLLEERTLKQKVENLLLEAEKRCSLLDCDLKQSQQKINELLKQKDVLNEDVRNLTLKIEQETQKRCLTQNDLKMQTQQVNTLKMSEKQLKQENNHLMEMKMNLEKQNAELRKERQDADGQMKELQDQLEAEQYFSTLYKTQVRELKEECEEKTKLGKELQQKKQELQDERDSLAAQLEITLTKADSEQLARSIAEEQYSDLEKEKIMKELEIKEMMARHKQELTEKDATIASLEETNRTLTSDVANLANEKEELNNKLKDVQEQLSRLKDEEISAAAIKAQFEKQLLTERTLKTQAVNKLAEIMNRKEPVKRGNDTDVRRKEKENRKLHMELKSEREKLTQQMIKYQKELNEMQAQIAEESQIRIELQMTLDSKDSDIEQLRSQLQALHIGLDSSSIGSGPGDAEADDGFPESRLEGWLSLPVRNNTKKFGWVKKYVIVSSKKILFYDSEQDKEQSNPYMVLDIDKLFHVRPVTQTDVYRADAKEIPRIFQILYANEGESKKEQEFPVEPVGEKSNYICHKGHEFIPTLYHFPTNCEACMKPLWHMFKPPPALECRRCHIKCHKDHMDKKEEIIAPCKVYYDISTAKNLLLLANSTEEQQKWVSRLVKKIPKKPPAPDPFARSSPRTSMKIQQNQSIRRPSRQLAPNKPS
Sequence of ROCK 1 (Q13464 whole entry): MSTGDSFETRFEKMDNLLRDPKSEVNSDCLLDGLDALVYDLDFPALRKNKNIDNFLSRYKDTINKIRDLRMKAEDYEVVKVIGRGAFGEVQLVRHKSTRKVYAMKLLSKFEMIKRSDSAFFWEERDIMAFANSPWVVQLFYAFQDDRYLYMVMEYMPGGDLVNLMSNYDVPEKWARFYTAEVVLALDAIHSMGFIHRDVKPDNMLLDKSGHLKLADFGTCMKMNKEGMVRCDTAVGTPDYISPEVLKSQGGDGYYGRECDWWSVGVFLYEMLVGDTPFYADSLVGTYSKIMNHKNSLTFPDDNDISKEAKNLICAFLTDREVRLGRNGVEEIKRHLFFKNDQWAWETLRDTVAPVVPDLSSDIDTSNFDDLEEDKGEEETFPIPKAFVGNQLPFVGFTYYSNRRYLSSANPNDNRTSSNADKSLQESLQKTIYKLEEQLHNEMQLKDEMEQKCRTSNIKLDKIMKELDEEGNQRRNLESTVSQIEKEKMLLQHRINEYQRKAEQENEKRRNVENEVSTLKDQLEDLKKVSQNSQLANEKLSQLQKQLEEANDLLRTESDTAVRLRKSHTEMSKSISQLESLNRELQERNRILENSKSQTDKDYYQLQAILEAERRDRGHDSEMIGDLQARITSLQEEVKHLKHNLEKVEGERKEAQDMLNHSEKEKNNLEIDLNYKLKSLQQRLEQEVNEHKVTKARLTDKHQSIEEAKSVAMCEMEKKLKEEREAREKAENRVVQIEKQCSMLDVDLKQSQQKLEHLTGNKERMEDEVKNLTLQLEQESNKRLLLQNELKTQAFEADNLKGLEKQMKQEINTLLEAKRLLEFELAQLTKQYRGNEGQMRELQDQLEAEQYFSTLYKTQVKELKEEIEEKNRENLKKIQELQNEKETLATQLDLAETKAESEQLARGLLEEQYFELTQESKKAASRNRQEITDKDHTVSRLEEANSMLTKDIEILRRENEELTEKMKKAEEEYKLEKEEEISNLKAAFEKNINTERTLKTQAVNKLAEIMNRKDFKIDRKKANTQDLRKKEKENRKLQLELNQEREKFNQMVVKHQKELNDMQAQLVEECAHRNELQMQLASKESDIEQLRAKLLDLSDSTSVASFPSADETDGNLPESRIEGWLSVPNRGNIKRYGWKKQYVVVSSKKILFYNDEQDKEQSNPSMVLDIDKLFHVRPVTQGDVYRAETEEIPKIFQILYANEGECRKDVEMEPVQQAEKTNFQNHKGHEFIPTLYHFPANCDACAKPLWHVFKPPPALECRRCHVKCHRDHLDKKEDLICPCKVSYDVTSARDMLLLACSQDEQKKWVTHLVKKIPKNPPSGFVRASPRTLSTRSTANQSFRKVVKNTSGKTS

O=C(Cc1ccccc1)Nc1nnc(-c2c[nH]c3nccc(Oc4ccc5c(c4)CNCC5)c23)o1 [Example 14, 2-phenyl-N-(5-(4-((1,2,3,4-tetrahydroisoquinolin-7-yl)oxy)-1H-pyrrolo[2,3-b]pyridin-3-yl)-1,3,4-oxadiazol-2-yl)acetamide]
Ki (ROCK 2): < 3 nM | Ki (ROCK 1): < 3 nM

NCc1ccc(Oc2ccnc3[nH]cc(-c4ccnc(NCc5ccccc5)c4)c23)cc1 [Example 15, 4-(4-(4-(aminomethyl)phenoxy)-1H-pyrrolo[2,3-b]pyridin-3-yl)-N-benzylpyridin-2-amine]
Ki (ROCK 2): < 3 nM | Ki (ROCK 1): 3 to 30 nM

c1cncc(CNc2cc(-c3c[nH]c4nccc(Oc5ccc6c(c5)CNCC6)c34)ccn2)c1 [Example 16, N-(pyridin-3-ylmethyl)-4-(4-((1,2,3,4-tetrahydroisoquinolin-7-yl)oxy)-1H-pyrrolo[2,3-b]pyridin-3-yl)pyridin-2-amine]
Ki (ROCK 2): < 3 nM | Ki (ROCK 1): < 3 nM

c1cc(-c2c[nH]c3nccc(Oc4ccc5c(c4)CNCC5)c23)cc(N2CCOCC2)n1 [Example 17, 4-(4-(4-((1,2,3,4-tetrahydroisoquinolin-7-yl)oxy)-1H-pyrrolo[2,3-b]pyridin-3-yl)pyridin-2-yl)morpholine]
Ki (ROCK 2): < 3 nM | Ki (ROCK 1): < 3 nM

c1cc(-c2c[nH]c3nccc(Oc4ccc5c(c4)CNCC5)c23)cc(NC[C@@H]2CCCO2)n1 [Example 18, (S)-N-((tetrahydrofuran-2-yl)methyl)-4-(4-((1,2,3,4-tetrahydroisoquinolin-7-yl)oxy)-1H-pyrrolo[2,3-b]pyridin-3-yl)pyridin-2-amine]
Ki (ROCK 2): < 3 nM | Ki (ROCK 1): < 3 nM

c1cc(-c2c[nH]c3nccc(Oc4ccc5c(c4)CNCC5)c23)cc(NC[C@H]2CCCO2)n1 [Example 19, (R)-N-((tetrahydrofuran-2-yl)methyl)-4-(4-((1,2,3,4-tetrahydroisoquinolin-7-yl)oxy)-1H-pyrrolo[2,3-b]pyridin-3-yl)pyridin-2-amine]
Ki (ROCK 2): < 3 nM | Ki (ROCK 1): < 3 nM

COCCNc1cc(-c2c[nH]c3nccc(Oc4ccc5c(c4)CNCC5)c23)ccn1 [Example 20, N-(2-methoxyethyl)-4-(4-((1,2,3,4-tetrahydroisoquinolin-7-yl)oxy)-1H-pyrrolo[2,3-b]pyridin-3-yl)pyridin-2-amine]
Ki (ROCK 2): < 3 nM | Ki (ROCK 1): 3 to 30 nM

Cn1cc(-c2c[nH]c3nccc(Oc4ccc5c(c4)CNCC5)c23)cn1 [Example 21, 7-((3-(1-methyl-1H-pyrazol-4-yl)-1H-pyrrolo[2,3-b]pyridin-4-yl)oxy)-1,2,3,4-tetrahydroisoquinoline]
Ki (ROCK 2): < 3 nM | Ki (ROCK 1): < 3 nM

NCc1ccc(Oc2ccnc3[nH]cc(-c4cnn(Cc5ccccc5)c4)c23)c(F)c1 [Example 22, (4-((3-(1-benzyl-1H-pyrazol-4-yl)-1H-pyrrolo[2,3-b]pyridin-4-yl)oxy)-3-fluorophenyl)methanamine]
Ki (ROCK 2): < 3 nM | Ki (ROCK 1): < 3 nM

NCc1ccc(Oc2ccnc3[nH]cc(-c4cnn(Cc5ccncc5)c4)c23)c(F)c1 [Example 23, (3-fluoro-4-((3-(1-(pyridin-4-ylmethyl)-1H-pyrazol-4-yl)-1H-pyrrolo[2,3-b]pyridin-4-yl)oxy)phenyl)methanamine]
Ki (ROCK 2): < 3 nM | Ki (ROCK 1): 3 to 30 nM

NCc1ccc(Oc2ccnc3[nH]cc(-c4cnn(CC5CCOCC5)c4)c23)c(F)c1 [Example 24, (3-fluoro-4-((3-(1-((tetrahydro-2H-pyran-4-yl)methyl)-1H-pyrazol-4-yl)-1H-pyrrolo[2,3-b]pyridin-4-yl)oxy)phenyl)methanamine]
Ki (ROCK 2): < 3 nM | Ki (ROCK 1): 3 to 30 nM

c1ccc(CNc2cc(-c3c[nH]c4nccc(Oc5ccc6c(c5)CNCC6)c34)ncn2)cc1 [Example 25, N-benzyl-6-(4-((1,2,3,4-tetrahydroisoquinolin-7-yl)oxy)-1H-pyrrolo[2,3-b]pyridin-3-yl)pyrimidin-4-amine]
Ki (ROCK 2): < 3 nM | Ki (ROCK 1): < 3 nM

c1ccc(CNc2nccc(-c3c[nH]c4nccc(Oc5ccc6c(c5)CNCC6)c34)n2)cc1 [Example 26, N-benzyl-4-(4-((1,2,3,4-tetrahydroisoquinolin-7-yl)oxy)-1H-pyrrolo[2,3-b]pyridin-3-yl)pyrimidin-2-amine]
Ki (ROCK 2): < 3 nM | Ki (ROCK 1): < 3 nM

c1ccc(CNc2cccc(-c3c[nH]c4nccc(Oc5ccc6c(c5)CNCC6)c34)n2)cc1 [Example 27, N-benzyl-6-(4-((1,2,3,4-tetrahydroisoquinolin-7-yl)oxy)-1H-pyrrolo[2,3-b]pyridin-3-yl)pyridin-2-amine]
Ki (ROCK 2): > 30 nM | Ki (ROCK 1): > 30 nM

c1ccc(CNc2ccnc(-c3c[nH]c4nccc(Oc5ccc6c(c5)CNCC6)c34)n2)cc1 [Example 28, N-benzyl-2-(4-((1,2,3,4-tetrahydroisoquinolin-7-yl)oxy)-1H-pyrrolo[2,3-b]pyridin-3-yl)pyrimidin-4-amine]
Ki (ROCK 2): > 30 nM | Ki (ROCK 1): > 30 nM

O=S(=O)(CCNc1cc(-c2c[nH]c3nccc(Oc4ccc5c(c4)CNCC5)c23)ncn1)c1ccccc1 [Example 29, N-(2-(phenylsulfonyl)ethyl)-6-(4-((1,2,3,4-tetrahydroisoquinolin-7-yl)oxy)-1H-pyrrolo[2,3-b]pyridin-3-yl)pyrimidin-4-amine]
Ki (ROCK 2): < 3 nM | Ki (ROCK 1): < 3 nM

c1nc(NCc2nccs2)cc(-c2c[nH]c3nccc(Oc4ccc5c(c4)CNCC5)c23)n1 [Example 30, 6-(4-((1,2,3,4-tetrahydroisoquinolin-7-yl)oxy)-1H-pyrrolo[2,3-b]pyridin-3-yl)-N-(thiazol-2-ylmethyl)pyrimidin-4-amine]
Ki (ROCK 2): < 3 nM | Ki (ROCK 1): < 3 nM

NCc1ccc(Oc2ccnc3[nH]cc(-c4cc(NCc5ccccc5)ncn4)c23)c(F)c1 [Example 31, 6-(4-(4-(aminomethyl)-2-fluorophenoxy)-1H-pyrrolo[2,3-b]pyridin-3-yl)-N-benzylpyrimidin-4-amine]
Ki (ROCK 2): < 3 nM | Ki (ROCK 1): < 3 nM

NCc1ccc(Oc2ccnc3[nH]cc(-c4ccnc(NCc5ccccc5)n4)c23)c(F)c1 [Example 32, 4-(4-(4-(aminomethyl)-2-fluorophenoxy)-1H-pyrrolo[2,3-b]pyridin-3-yl)-N-benzylpyrimidin-2-amine]
Ki (ROCK 2): < 3 nM | Ki (ROCK 1): 3 to 30 nM

NCc1ccc(Oc2ccnc3[nH]cc(-c4ccnc(NCc5ccccc5)c4)c23)c(F)c1 [Example 33, 4-(4-(4-(aminomethyl)-2-fluorophenoxy)-1H-pyrrolo[2,3-b]pyridin-3-yl)-N-benzylpyridin-2-amine]
Ki (ROCK 2): < 3 nM | Ki (ROCK 1): 3 to 30 nM

NCc1ccc(Oc2ccnc3[nH]cc(-c4cnc(NC(=O)Cc5ccccc5)s4)c23)cc1 [Example 34, N-(5-(4-(4-(aminomethyl)phenoxy)-1H-pyrrolo[2,3-b]pyridin-3-yl)thiazol-2-yl)-2-phenylacetamide]
Ki (ROCK 2): < 3 nM | Ki (ROCK 1): 3 to 30 nM

c1cc(-c2c[nH]c3nccc(Oc4ccc5c(c4)CNCC5)c23)cc(NCc2nccs2)n1 [Example 35, 4-(4-((1,2,3,4-tetrahydroisoquinolin-7-yl)oxy)-1H-pyrrolo[2,3-b]pyridin-3-yl)-N-(thiazol-2-ylmethyl)pyridin-2-amine]
Ki (ROCK 2): < 3 nM | Ki (ROCK 1): < 3 nM

c1cc(-c2c[nH]c3nccc(Oc4ccc5c(c4)CNCC5)c23)cc(NCC2CC2)n1 [Example 36, N-(cyclopropylmethyl)-4-(4-((1,2,3,4-tetrahydroisoquinolin-7-yl)oxy)-1H-pyrrolo[2,3-b]pyridin-3-yl)pyridin-2-amine]
Ki (ROCK 2): < 3 nM | Ki (ROCK 1): < 3 nM

Cc1ccc(CNc2cc(-c3c[nH]c4nccc(Oc5ccc6c(c5)CNCC6)c34)ccn2)nc1 [Example 37, N-((5-methylpyridin-2-yl)methyl)-4-(4-((1,2,3,4-tetrahydroisoquinolin-7-yl)oxy)-1H-pyrrolo[2,3-b]pyridin-3-yl)pyridin-2-amine]
Ki (ROCK 2): < 3 nM | Ki (ROCK 1): 3 to 30 nM

c1cc(-c2c[nH]c3nccc(Oc4ccc5c(c4)CNCC5)c23)cc(NCC2CCOCC2)n1 [Example 38, N-((tetrahydro-2H-pyran-4-yl)methyl)-4-(4-((1,2,3,4-tetrahydroisoquinolin-7-yl)oxy)-1H-pyrrolo[2,3-b]pyridin-3-yl)pyridin-2-amine]
Ki (ROCK 2): < 3 nM | Ki (ROCK 1): < 3 nM

O=C(Nc1cc(-c2c[nH]c3nccc(Oc4ccc5c(c4)CNCC5)c23)ccn1)C1CC1 [Example 39, N-(4-(4-((1,2,3,4-tetrahydroisoquinolin-7-yl)oxy)--1H-pyrrolo[2,3-b]pyridin3-yl)pyridin-2-yl)cyclopropanecarboxamide]
Ki (ROCK 2): < 3 nM | Ki (ROCK 1): 3 to 30 nM

O=C(Nc1cc(-c2c[nH]c3nccc(Oc4ccc5c(c4)CNCC5)c23)ccn1)C1CCCCC1 [Example 40, N-(4-(4-((1,2,3,4-tetrahydroisoquinolin-7-yl)oxy)-1H-pyrrolo[2,3-b]pyridin-3-yl)pyridin-2-yl)cyclohexanecarboxamide]
Ki (ROCK 2): < 3 nM | Ki (ROCK 1): < 3 nM

O=C(Nc1cc(-c2c[nH]c3nccc(Oc4ccc5c(c4)CNCC5)c23)ccn1)C1CCOCC1 [Example 41, N-(4-(4-((1,2,3,4-tetrahydroisoquinolin-7-yl)oxy)-1H-pyrrolo[2,3-b]pyridin-3-yl)pyridin-2-yl)tetrahydro-2H-pyran-4-carboxamide]
Ki (ROCK 2): < 3 nM | Ki (ROCK 1): < 3 nM
